# Patent publication US9809560B2, “Ligands and methods for labeling biomolecules in vivo” (Albert Einstein College of Medicine, Inc., priority 2010, dated 2017)
# Legend:
# [1] = Fluorogenic kinetic assay of CuAAC of 3-azido-7-hydroxy-coumarin and propargyl alcohol; conditions: 75 μM CuSO4 premixed with ligand, [ligand]:[copper] 2:1 to 6:1; within 15 min
# Protocol: FIG. 1A-1C. Copper(I)-catalyzed azide-alkyne cycloaddition (CuAAC) is accelerated by Cu(I)-stabilizing ligands. (A) CuAAC of azides and terminal alkynes to form 1,4-disubstituted 1,2,3-triazoles. (B) Structures of CuAAC-accelerating ligands. (C) Conversion-time profiles of CuAAC in the presence/absence of accelerating ligands. Reaction conditions: propargyl alcohol (50 μM), 3-azido-7-hydroxy-coumarin (100 μM), CuSO4 (75 μM), 0.1 M potassium phosphate buffer (pH 7.0)/DMSO 95:5, sodium ascorbate ([…]), rt. Error bars represent the standard deviation of three replicate experiments.
# Protocol for Kinetic Measurement of CuAAC of 3-azido-7-hydroxy-coumarin and Propargyl Alcohol […]
# Procedure for 200 μL reactions: In a 96-well fluorescence plate, add the reagents in the following order: (1) 40 μL of 500 mM phosphate buffer pH 7.0; (2) 1.0 μL 10 mM propargyl alcohol; (3) 10 μL of DMSO; (4) 6 μL of premixed CuSO4 and ligand ([Cu]=2.5 mM); (5) 1.0 μL 20 mM coumarin-N3; (6) 20 μL of 25 mM sodium ascorbate; (7) Read fluorescence (λex=404 nm, λem=477 nm, RFU) on the Synergy plate reader.
# zebrafish embryos = experiment: Imaging of fucosylated glycans in zebrafish embryos microinjected with GDP-FucAl; assay type: in vivo; conditions: among 120 embryos microinjected with nucleotide sugar analogues and treated with click reagents, through four days post click reaction
# Protocol: Zebrafish embryos at the one-cell or two-cell stage were microinjected in the yolk with 1 nL of a 20 mM solution of GDP-FucAl (or GDP-fucose) and either rhodamine-dextran (5% w/v) or phenol red (0.1% w/v) in 0.2 M KCl as a tracer. The embryos were allowed to develop to 5 hpf, at which point they were manually dechorionated. The dechorionated embryos were cultured in E3 embryo medium at 28° C. for an additional 3 h before transferring to 1% agarose-coated 96-well plates containing 92 μL embryo medium using a fire-polished wide-bore Pasteur pipette. Alexa Fluor-488 azide (100 μM from a 1.75 mM stock in H2O) was added to each well, followed by BTTES-CuSO4 or BTTA-CuSO4 6:1 complex ([Cu]=50 μM from 2.5 mM stock). […] After mounting on a slide or 50 mm glass bottom dishes (Matek) in 1.5-3% methyl cellulose and E3 medium, the embryos were ready for imaging by confocal microscopy.
# To image fucosylated glycans in zebrafish embryos, GDP-FucAl was synthesized chemoenzymatically and microinjected embryos at the one-cell stage with 20 pmol of GDP-FucAl (FIG. 4B). […] Robust labeling of the treated embryos was achieved within 1-3 min reaction (FIG. 4C), and only background fluorescence was detected for control embryos microinjected with GDP-fucose (FIG. 10). […]
compound,measurement,setting,value
CC(C)(C)n1cc(CN(Cc2cn(CCOS(=O)(=O)O)nn2)Cc2cn(C(C)(C)C)nn2)nn1 [BTTES],cycloaddition product yield,[1],> 50%
same,embryos with minor developmental defects,zebrafish embryos,less than twelve embryos exhibited minor developmental defects
